Experimental data from patent publication US20110183942A1, “Methods and Compositions for Treating Alzheimer's Disease” (UNIVERSITY OF MEDICINE AND DENTISTRY OF NEW JERSEY, priority 2008, published 2011).
“And” between values parts separate entries of the source, which are not always exact repeats. Identical values can stand only once. “Also recorded” adds a separate entry of the source. Like-named read-outs stand apart in the source and are kept apart here. *1 amine or outer side, *2 acyl side, *3 side chain or, on linkers, in order; H or OH if unused. Where a SMILES comes first, the peptide text is derived from it. Bridges are numbered along the chain shown (N, C = ends). Roman numbers before positions name the chains, in order. Where no end group is shown, it is not given here. [ ]: non-standard residue; d: D form. The star is where a group is joined. Actinocin(9to1) = Cc1c2oc3c(C)ccc(C(=O)[*:1])c3nc-2c(C(=O)[*:2])c(N)c1=O; NMeV = CN[C@H](C(=O)O)C(C)C; Cbz = O=C(OCc1ccccc1)*; Sar = CNCC(=O)O

Experiments:
[1] = system: surface AMPA receptor (GluR2/3, GluR1) in cultured neurons; assay: Surface biotinylation assay of AMPA receptor subunits; type: cell-based, mouse
Procedure: For surface biotinylation, drug-treated cortical neurons were cooled on ice, washed twice with ice-cold PBS++ (1× PBS, 1 mM CaCl2, 0.5 mM MgCl2) and then incubated with PBS++ containing 1 mg/ml Sulfo-NHS-SSBiotin (Pierce) for 30 min at 4° C. Unreacted biotin was quenched by washing cells three times with PBS++ containing 100 mM Glycine (pH 7.4) (briefly once and for 5 min twice). Cultures were harvested in RIPA buffer and sonicated. Homogenates were centrifuged at […] for 20 min at 4° C. Fifteen % of supernatant was saved as the total protein. […] Precipitates were washed with RIPA buffer three times (5 min each time). All procedures were done at 4° C.

[2] = molecular target: T1, eEF2 kinase (Homo sapiens, UniProt O00418); assay: Peptide substrate phosphorylation by eEF2 kinase; type: biochemical
T1 construct: made in house; host or cells: E. coli
Description: While alpha-kinase phosphorylation sites are typically found within alpha-helicies of peptide substrates, it was unknown for eEF2K if alpha-kinases recognized target substrates based on a specific primary peptide sequence around the phosphorylation site of eEF2K, or whether the alpha-helical secondary structure is responsible for the phosphorylation by alpha-kinases. To clarify this an arrayed peptide library screen was used (Turk, Yale Med. Sch. Dept. Pharmacol.) that thoroughly evaluated for specific kinase preference all 20 amino acids at each of nine positions neighboring the phosphorylation site.
Every peptide comprising this library contained a central fixed phosphorylation site where equimolar quantities of threonine and serine were introduced; each peptide also contained a carboxy-terminal biotin label. […]
Reactions in this screen were run for a given incubation time and then spotted simultaneously on a streptavidin membrane through use of a high throughput capillary-based liquid transfer device. Submersion of the membrane in a specified quenching solution stripped away unincorporated ATP and then radiolabeled-ATP incorporation was measured using a phosphoimager. […]

[3] = system: Arc protein in DIV14 forebrain neurons; assay: Western blot of Arc protein in cultured forebrain neurons; type: cell-based, mouse; settings: for level of Arc protein, low dose cycloheximide: 10 min; for level of Arc protein after BDNF: BDNF 10 ng/ml
Procedure: For biochemistry experiments, 0.4×10^6 neurons were added to each well of a 6-well plate (Coming) coated with poly-L-lysine. Growth medium consisted of NeuroBasal (Invitrogen) supplemented with 1% fetal bovine serum (Hyclone), 2% B27, 1% Glutamax (Invitrogen), 100 U/mL penicillin, and 100 U/mL streptomycin (Invitrogen). Neurons were fed twice per week with glia conditioned growth medium.
Transfected HEK293T cells or cultured neurons were treated with various drugs and then harvested in IP buffer supplemented with 1% Triton X-100 buffer and Complete™ EDTA-Free protease inhibitors. Soluble fractions were diluted with 4× SDS sample buffer.
The membrane was blocked with TBST (50 mM Tris, pH 7.5, with 150 mM NaCl, and 0.1% Tween-20) containing 5% non-fat milk for one hour at room temperature, followed by incubation with primary antibody in TBST buffer overnight at 4° C. After three washes with TBST buffer, membranes were incubated with HRP-conjugated anti-rabbit, or anti-mouse antibody in TBST for another hour. After three washes with TBST buffer, the membrane was treated with SuperSignal ECL substrate (Pierce) according to the manufacturer's protocol.
To reduce the background signal in the co-IP assay, HRP-conjugated HA or HPR conjugated myc antibody (Santa Cruz) was used when overexpressed proteins were tagged with HA or myc. […] Image J software (NIH) was used for quantification.

[4] = system: Arc protein in DIV14 hippocampal neurons; assay: Arc immunocytochemistry in cultured hippocampal neurons; type: cell-based, mouse; settings: emetine 10 ng/ml, 10 min
Procedure: Immunocytochemistry of cultured neurons was performed as described (Shepherd et al., Neuron, 52, 475-484 (2006)). Briefly, DIV14 primary hippocampal neurons were fixed in fixation solution (4% paraformaldehyde, 4% sucrose containing 1× PBS) for 20 min at 4° C. and were permeabilized with 0.2% Triton X-100 in PBS for 10 min 4° C. Cells were then blocked for 1 hr at room temperature in 10% normal goat serum (NGS). Primary antibodies were diluted (1:250 of phospho-eEF2 antibody, 1:500 of PSD95, 1:300 for Arc) in 10% NGS and incubated with neurons for overnight at 4° C. Alexa 488, or Alexa 555-conjugated secondary antibodies (1:500; Molecular Probes) were diluted in 10% NGS and incubated at room temperature for 1 hr. Coverslips were mounted with PermaFluor containing DAPI (Invitrogen). All images were taken with same exposure and setting using Zeiss 510 Meta confocal microscope. Quantification of Arc levels was carried out using Image J software. For the measurement of dendritic Arc levels, average pixel intensity was measured in the primary dendrites 20 μm away from the soma.

[5] = system: global protein synthesis in cultured neurons; assay: Metabolic labeling, incorporation of 35S methionine and cysteine into TCA precipitant; type: cell-based; settings: 100 nM cycloheximide
Procedure: To measure the incorporation of ^35S methionine and cysteine into new peptide, 30 μl protein labeling mix (Perkin Elmer) was added into 1.5 ml of regular culture medium (final 220 μCi/ml) for the time indicated in the figures. After washout once with ice-cold PBS, cells were lysed with 700 μl of RIPA buffer. After quantification of total amount of protein, equal amount of lysate (˜200 μl) was precipitated with 10% TCA.

[6] = system: hippocampal Schaffer collateral-CA1 synapses; assay: Field recording of fEPSP (mGluR-LTD) in acute hippocampal slices; type: cell-based, mouse; settings: for DHPG-LTD in the presence of high dose cycloheximide: cycloheximide 60 μM, t=105 min
Procedure: For recording, slices were placed in a submersion recording chamber and perfused with 30° C. ACSF at a rate of 2 ml/min.
fEPSPs were recorded with extracellular recording electrodes (1.0 MΩ) filled with ACSF and placed in the stratum radiatum of area CA1. Synaptic responses were evoked by a 200-μsec current pulse to Schaffer collateral axons with a concentric bipolar tungsten stimulating electrode. Stable baseline responses were collected every 30 sec by using a stimulation intensity (10-30 μA) yielding 50-60% of the maximal fEPSP slope response.
mGluR-LTD was induced by a mGluR1/5 agonist, (R,S)-3,5-DHPG (Tocris), or by electrical stimulations. […] NMDAR dependent-LTD was induced by using 900 single pulses delivered at 1 Hz.

[7] = molecular target: eEF2K (Homo sapiens, UniProt O00418); assay: eEF2K activity in vitro; type: biochemical
[8] = system: Arc mRNA in cultured neurons; assay: Real-time RT-PCR of Arc mRNA; type: cell-based; settings: BDNF 10 ng/ml at 40 min; forskolin 50 μM at 20 min; DHPG at 20 and 40 min after stimulation
Procedure: RNA samples from neuronal cultures were prepared using the PARIS kit (Ambion) according to the manufacturer's protocol. Following RNA extraction, samples were treated with DNase to remove contaminating DNA prior to cDNA synthesis. Total RNA was reverse transcribed using the SuperScript II First Strand Synthesis System for RT-PCR (Invitrogen) according to the manufacturer's protocol. A negative control without reverse transcriptase was included.
Primer specificity was verified by melt curve analysis. PCR amplification of cDNA was performed using the BioRad iCycler Real-Time Detection System (BioRad Laboratories). cDNA (1 μl) was added to 24 μl of 1× reaction master mix (3 mM MgCl2, KCl, Tris-HCl, iTaq DNA polymerase, 25 units/ml SYBR Green 1, 0.2 mM each dNTPs, 10 nM fluorescein and 500 nM each gene specific primers). […]
GAPDH was used to normalize data. The threshold for detection of PCR product above background was set at 10× the standard deviation of the mean background fluorescence for all reactions. Background fluorescence was determined from cycles 1-5 prior to the exponential amplification of product and subtracted from the raw fluorescence of each reaction/cycle. […] Threshold cycle (CT; number of cycles to reach threshold of detection) was determined for each reaction.
Relative gene expression was determined using the 2^−ΔΔCT method (Livak, et al., Methods 25, 402-408 (2001)). […]

In the case of `NC1=N[C@H](O)[C@H]2[C@H]3O[C@]4(O)O[C@@H]([C@@H](O)[C@@]2(N1)[C@@H]4O)[C@]3(O)CO` [TTX, tetrodotoxin], the “surface expression of GluR1” value [1] is reported as “increased the surface expression of GluR1”.

With Ac-RKKYKFNEDTERRRFL [eEF2p] the “efficiency as substrate compared with the MH-U peptide” value [2] was “two orders of magnitude more efficient”.

In the case of `Cc1c2oc3c(C)ccc(C(=O)N[C@@H]4C(=O)N[C@H](C(C)C)C(=O)N5CCC[C@H]5C(=O)N(C)CC(=O)N(C)[C@@H](C(C)C)C(=O)O[C@@H]4C)c3nc-2c(C(=O)N[C@@H]2C(=O)N[C@H](C(C)C)C(=O)N3CCC[C@H]3C(=O)N(C)CC(=O)N(C)[C@@H](C(C)C)C(=O)O[C@@H]2C)c(N)c1=O` [Actinomycin D] (I: T[dV]P[Sar][NMeV] / II: T[dV]P[Sar][NMeV]; ester I:1-I:C, II:1-II:C; linker I:N-II:N via Actinocin(9to1)), the “effect on induction of Arc protein by DHPG (5 min)” value [3] is reported as “did not alter; also recorded: did not block” and the “basal levels of Arc with transcription inhibitor” value ([3]; ActD 10 μM, 1 hr) is reported as “decreased the basal levels of Arc”.

`CC[C@H]1CN2CCc3cc(OC)c(OC)cc3[C@@H]2C[C@@H]1C[C@H]1NCCc2cc(OC)c(OC)cc21` [emetine] was tested, and the “effect on rapid DHPG-induced increase of Arc (immunocytochemistry)” value [4] was “blocked”.

With `C[C@@H]1C[C@@H]([C@H](O)CC2CC(=O)NC(=O)C2)C(=O)[C@@H](C)C1` [cycloheximide] the “total incorporation of 35S labeled methionine and cysteine into TCA precipitant” value [5] was roughly 60%, the “effect on induction of Arc protein by DHPG (5 min)” value [3] was “blocked” and the “induction of Arc, high dose cycloheximide” value ([3]; >1 uM, WT and eEF2K KO neurons) was “did not induce Arc”. The “level of Arc protein, low dose cycloheximide” value (shortened to “level … low dose cycloheximide”) ([3]; WT neurons, low dose (50-100 nM)) was “increased Arc protein”, the “level … low dose cycloheximide” value ([3]; WT neurons, low dose (50-100 nM), listed as CHX) was “increased the level of Arc protein” and the “level … low dose cycloheximide” value ([3]; eEF2K KO neurons, 50 nM and 100 nM) was “increased the level of Arc protein”. The “fEPSP slope, low dose cycloheximide + DHPG” value [6] was 75.7±7.4 % of baseline and 69.0±2.6 % of baseline, the “DHPG-LTD in the presence of high dose cycloheximide” value ([6]; Fmr1 KO slices) was 72.3±4.8 % of baseline and the “DHPG-LTD in the presence of high dose cycloheximide” value ([6]; WT (FVB) slices) was 95.5±2.9 % of baseline. For the same molecule, the “baseline synaptic transmission, low dose cycloheximide without mGluR stimulation” value ([6]; WT slices) was 101.2±2.0% and the “baseline synaptic transmission, low dose cycloheximide without mGluR stimulation” value ([6]; eEF2K KO slices) was 100.4±4.6%.

`CCCCCCCCCCCCC/C=C/[C@@H](O)[C@@H](N)COP(=O)(O)O` [Sphingosine-1-phosphate, sphingosine-1-phosphate] was tested, and the “inhibition of eEF2K activity in vitro” value [7] was “inhibit eEF2K activity” and the “inhibition of eEF2K activity in vitro” value ([7]; listed as sphingosine-1-phosphate) was “inhibitor of eEF2 kinase”.

`CC(C)C[C@@H](C=O)NC(=O)[C@H](CC(C)C)NC(=O)[C@H](CC(C)C)NC(=O)OCc1ccccc1` [MG132] (Cbz-Leu-Leu-Leu-aldehyde) was tested, and the “level of Arc protein with proteasome inhibitor” value ([3]; MG132 10 μM, 1 hr) was “increased the basal level of Arc protein; also recorded: increased the levels of Arc”.

B1: BDNF: BDNF, applied at 10 ng/ml to neurons (protein, UniProt P23560 19-247, looked up)
Neurotrophic factor BDNF …: APMKEANIRGQGGLAYPGVRTHGTLESVNGPKAGSRGLTSLADTFEHVIEELLDEDQKVRPNEENNKDADLYTSRVMLSSQVPLEPPLLFLLEEYKNYLDAANMSMRVRRHSDPARRGELSVCDSISEWVTAADKKTAVDMSGGTVTVLEKVPVSKGQLKQYFYETKCNPMGYTKEGCRGIDKRHWNSQCRTTQSYVRALTMDSKKRIGWRFIRIDTSCVCTLTIKRGR
For B1, the “level of Arc mRNA” value [8] was “induced the level of Arc mRNA”, the “level of Arc protein after BDNF” value ([3]; 40 min after treatment) was “increased Arc protein expression; also recorded: increased the level of Arc protein” and the “level of Arc protein after BDNF” value ([3]; after 5 min) was “no change”.
